A short description of series [1]: Molar enthalpy of transition or fusion. The note with it: Crystal; DSC.
For series [2] the following is noted: Crystal; DTA.

SMILES strings stand for the structures. Numbers after ± are expanded uncertainties.

Take `Cc1nc2n(c(=O)c1CCN1CCC(c3noc4cc(F)ccc34)CC1)CCCC2` [risperidone]: the “Molar enthalpy of transition or fusion” value in series [1] came out at 10 ± 0.263 kcal/mol. Moreover, the Normal melting temperature in series [2] worked out at 170.52 ± 1.1 °C.

The values are drawn from the NIST ThermoML archive (doi:10.1016/j.tca.2013.06.032).
